The values below come from US11957759B1, “Rapidly accelerated fibrosarcoma (RAF) degrading compounds and associated methods of use” (Arvinas Operations, Inc., priority 2022, dated 2024).

For one test, the target named is T1, B-RAF G466V (Homo sapiens, UniProt P15056, G466V).
T1 construct: expressed in transfected cells; host or cells: T-Rex 293 cells (Invitrogen #R71007)
Nature of the test: Target protein degradation, assay D: T-Rex 293 cells, HA-BRAF_G466V, 384 well format. Type of test: cell-based. Particulars: T-Rex 293 HA-BRAF_G466V cells, 24 hours, Examples 83-269; for DC50: Assay D; for Dmax: T-REx-293, Assay D. The gist of the method: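 Degradation measured by high-content imaging of anti-HA immunofluorescence in fixed T-Rex 293 cells carrying inducible HA-BRAF G466V (1 ng/mL doxycycline), after 24 h PROTAC exposure at 37 °C over 300 nM–5 pM (1:3, 11 points, 0.5% DMSO). Outputs DC50 and Dmax as % of control; nuclei counts against DMSO wells gauge toxicity.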

Another test deals with T2, B-RAF V600E (Homo sapiens, UniProt P15056, V600E).
T2 construct: expressed in transfected cells; host or cells: T-Rex 293 cells (Invitrogen #R71007)
T2 sequence (P15056 whole entry V600E): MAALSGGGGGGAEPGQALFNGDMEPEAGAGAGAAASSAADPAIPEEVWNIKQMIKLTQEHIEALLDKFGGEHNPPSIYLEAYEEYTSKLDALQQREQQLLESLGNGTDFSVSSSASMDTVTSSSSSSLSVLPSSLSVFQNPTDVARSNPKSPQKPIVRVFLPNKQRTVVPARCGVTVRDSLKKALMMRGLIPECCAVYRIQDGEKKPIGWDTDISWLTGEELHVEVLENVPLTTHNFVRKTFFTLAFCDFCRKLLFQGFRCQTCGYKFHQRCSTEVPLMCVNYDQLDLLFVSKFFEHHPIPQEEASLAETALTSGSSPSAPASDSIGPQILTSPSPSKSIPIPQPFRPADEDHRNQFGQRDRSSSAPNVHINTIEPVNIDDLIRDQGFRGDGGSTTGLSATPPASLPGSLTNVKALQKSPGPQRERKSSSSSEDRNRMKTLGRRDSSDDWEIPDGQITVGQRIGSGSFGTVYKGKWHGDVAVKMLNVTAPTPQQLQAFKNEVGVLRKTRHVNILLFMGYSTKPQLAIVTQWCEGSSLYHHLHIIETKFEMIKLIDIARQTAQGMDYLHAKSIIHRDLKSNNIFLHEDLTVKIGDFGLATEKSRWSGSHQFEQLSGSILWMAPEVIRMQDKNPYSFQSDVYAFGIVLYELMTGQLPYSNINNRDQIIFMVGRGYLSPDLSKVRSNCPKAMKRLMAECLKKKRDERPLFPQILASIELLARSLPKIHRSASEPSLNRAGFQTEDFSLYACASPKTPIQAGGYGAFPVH
The test is described as follows: Target protein degradation, assay C: T-Rex 293 cells, HA-BRAF_V600E, 384 well format. Type of test: cell-based. Particulars: T-Rex 293 HA-BRAF_V600E cells, 24 hours, Examples 83-269; for DC50: Assay C; for Dmax: T-REx-293, Assay C. The gist of the method: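 After 24 h exposure to an 11-point 1:3 series (300 nM–5 pM, 0.5% DMSO), fixed T-Rex 293 cells carrying HA-BRAF V600E (induced with 1 ng/mL doxycycline) were stained anti-HA and imaged. DC50 and Dmax were derived from BRAF intensity relative to control, and cytotoxicity from nuclear counts.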

T1 sequence (P15056 whole entry G466V): as the sequence (P15056 whole entry V600E) above, with G466V, E600V counted along it

Take `Cc1c(NS(=O)(=O)N2CC[C@@H](F)C2)ccc(F)c1Oc1ccc2ncn(-c3ccc(N4CCN(CC5CCN(c6ccc7c(c6)CN(C6CCC(=O)NC6=O)C7=O)CC5)CC4)cc3)c(=O)c2c1` (stereo partly drawn) [Example 210, (3R)-N-{3-[(3-{4-[4-({1-[2-(2,6-dioxopiperidin-3-yl)-1-oxo-2,3-dihydro-1H-isoindol-5-yl]piperidin-4-yl}methyl)piperazin-1-yl]phenyl}-4-oxo-3,4-dihydroquinazolin-6-yl)oxy]-4-fluoro-2-methylphenyl}-3-fluoropyrrolidine-1-sulfonamide]: on B-RAF G466V, the DC50 was in the range of 10 to 30 nM and the Dmax lay in the range of 35 to 70%. At B-RAF V600E, this compound displayed a DC50 of 50 to 500 nM and a Dmax of 35 to 70%.
In the case of `N#Cc1c(NS(=O)(=O)N2CC[C@@H](F)C2)ccc(F)c1Oc1ccc2ncn(-c3cccc(C4CCN(CC5CCN(c6ccc7c(c6)CN([C@H]6CCC(=O)NC6=O)C7=O)CC5)C4)c3)c(=O)c2c1` (stereo partly drawn) [Example 211, (3R)-N-(2-cyano-3-{[3-(3-{1-[(1-{2-[(3S)-2,6-dioxopiperidin-3-yl]-1-oxo-2,3-dihydro-1H-isoindol-5-yl}piperidin-4-yl)methyl]pyrrolidin-3-yl}phenyl)-4-oxo-3,4-dihydroquinazolin-6-yl]oxy}-4-fluorophenyl)-3-fluoropyrrolidine-1-sulfonamide], the DC50 at B-RAF G466V fell in the range of 1 to 10 nM; at B-RAF V600E it was 50 to 500 nM. The Dmax on B-RAF G466V and at B-RAF V600E was 35 to 70% throughout.
On B-RAF G466V, `C[C@H]1CN(CC2CCN(c3ccc4c(c3F)CN([C@H]3CCC(=O)NC3=O)C4=O)CC2)CCN1c1ccc(-n2cnc3ccc(Oc4c(F)ccc(NS(=O)(=O)N5CC[C@@H](F)C5)c4C#N)cc3c2=O)nc1` [Example 213, (3R)-N-{2-cyano-3-[(3-{5-[(2S)-4-[(1-{2-[(3S)-2,6-dioxopiperidin-3-yl]-4-fluoro-1-oxo-2,3-dihydro-1H-isoindol-5-yl}piperidin-4-yl)methyl]-2-methylpiperazin-1-yl]pyridin-2-yl}-4-oxo-3,4-dihydroquinazolin-6-yl)oxy]-4-fluorophenyl}-3-fluoropyrrolidine-1-sulfonamide] displayed a DC50 of 1 to 10 nM and a Dmax of at most 35%. In addition, at B-RAF V600E, the DC50 is 50 to 500 nM and the Dmax was at most 35%.
At B-RAF G466V, `C[C@H]1CN(CC2CCN(c3ccc4c(c3F)CN([C@@H]3CCC(=O)NC3=O)C4=O)CC2)CCN1c1ccc(-n2cnc3ccc(Oc4c(F)ccc(NS(=O)(=O)N5CC[C@@H](F)C5)c4C#N)cc3c2=O)nc1` [Example 214, (3R)-N-{2-cyano-3-[(3-{5-[(2S)-4-[(1-{2-[(3R)-2,6-dioxopiperidin-3-yl]-4-fluoro-1-oxo-2,3-dihydro-1H-isoindol-5-yl}piperidin-4-yl)methyl]-2-methylpiperazin-1-yl]pyridin-2-yl}-4-oxo-3,4-dihydroquinazolin-6-yl)oxy]-4-fluorophenyl}-3-fluoropyrrolidine-1-sulfonamide] registered a DC50 of 10 to 30 nM and a Dmax of at most 35%. The DC50 at B-RAF V600E was over 500 nM.
On B-RAF G466V, `N#Cc1c(NS(=O)(=O)N2CC[C@@H](F)C2)ccc(F)c1Oc1ccc2ncn(-c3ccc(N4CCC(CN5CC(c6ccc7c(c6)CN([C@H]6CCC(=O)NC6=O)C7=O)C5)CC4)cc3)c(=O)c2c1` [Example 215, (3R)-N-(2-cyano-3-{[3-(4-{4-[(3-{2-[(3S)-2,6-dioxopiperidin-3-yl]-1-oxo-2,3-dihydro-1H-isoindol-5-yl}azetidin-1-yl)methyl]piperidin-1-yl}phenyl)-4-oxo-3,4-dihydroquinazolin-6-yl]oxy}-4-fluorophenyl)-3-fluoropyrrolidine-1-sulfonamide] came in with a DC50 of 1 to 10 nM and a Dmax of at most 35%. At B-RAF V600E, this compound returned a DC50 of 50 to 500 nM and a Dmax of 35 to 70%.
On to `N#Cc1c(NS(=O)(=O)N2CC[C@@H](F)C2)ccc(F)c1Oc1ccc2ncn(-c3ccc(N4CCC(CN5CC(c6ccc7c(c6)CN([C@@H]6CCC(=O)NC6=O)C7=O)C5)CC4)cc3)c(=O)c2c1` [Example 216], for which, on B-RAF G466V, the 50% degradation concentration (DC50) lay within 1 to 10 nM and the Dmax is at most 35%. On B-RAF V600E, the DC50 was in the range of 50 to 500 nM and the Dmax was 35 to 70%.
On to `N#Cc1c(NS(=O)(=O)N2CC[C@@H](F)C2)ccc(F)c1Oc1ccc2ncn(-c3ccc(N4CCC(CN5CCN(c6ccc7c(c6)CN([C@H]6CCC(=O)NC6=O)C7=O)CC5)C4)cc3)c(=O)c2c1` (stereo partly drawn) [Example 217, (3R)-N-(2-cyano-3-{[3-(4-{3-[(4-{2-[(3S)-2,6-dioxopiperidin-3-yl]-1-oxo-2,3-dihydro-1H-isoindol-5-yl}piperazin-1-yl)methyl]pyrrolidin-1-yl}phenyl)-4-oxo-3,4-dihydroquinazolin-6-yl]oxy}-4-fluorophenyl)-3-fluoropyrrolidine-1-sulfonamide], for which, at B-RAF G466V, the DC50 was 1 to 10 nM and the Dmax was at most 35%. Besides, on B-RAF V600E, the DC50 was in the range of 50 to 500 nM and the Dmax lay within 35 to 70%.
The like results for `Cn1c(=O)n(C2CCC(=O)NC2=O)c2cccc(N3CC(CN4CCN(c5ccc(-n6cnc7ccc(Oc8c(F)ccc(NS(=O)(=O)N9CC[C@@H](F)C9)c8C#N)cc7c6=O)cc5)CC4)C3)c21` (stereo partly drawn) [Example 218, (3R)-N-{2-cyano-3-[(3-{4-[4-({1-[1-(2,6-dioxopiperidin-3-yl)-3-methyl-2-oxo-2,3-dihydro-1H-1,3-benzodiazol-4-yl]azetidin-3-yl}methyl)piperazin-1-yl]phenyl}-4-oxo-3,4-dihydroquinazolin-6-yl)oxy]-4-fluorophenyl}-3-fluoropyrrolidine-1-sulfonamide] were, in that order, 1 to 10 nM, 35 to 70%, 50 to 500 nM and 35 to 70%.
The like results for `N#Cc1c(NS(=O)(=O)N2CC[C@@H](F)C2)ccc(F)c1Oc1ccc2ncn(-c3ccc(N4CCC(CN5CC6(CCC(c7ccc8c(c7)CN([C@H]7CCC(=O)NC7=O)C8=O)CC6)C5)CC4)cc3)c(=O)c2c1` [Example 219, (3R)-N-(2-cyano-3-{[3-(4-{4-[(7-{2-[(3S)-2,6-dioxopiperidin-3-yl]-1-oxo-2,3-dihydro-1H-isoindol-5-yl}-2-azaspiro[3.5]nonan-2-yl)methyl]piperidin-1-yl}phenyl)-4-oxo-3,4-dihydroquinazolin-6-yl]oxy}-4-fluorophenyl)-3-fluoropyrrolidine-1-sulfonamide] were, in that order, 1 to 10 nM, 35 to 70%, 50 to 500 nM and 35 to 70%.
In the case of `N#Cc1c(NS(=O)(=O)N2CC[C@@H](F)C2)ccc(F)c1Oc1ccc2ncn(-c3ccc(N4CCC(CN5CC6(CCC(c7ccc8c(c7)CN([C@@H]7CCC(=O)NC7=O)C8=O)CC6)C5)CC4)cc3)c(=O)c2c1` [Example 220, (3R)-N-(2-cyano-3-{[3-(4-{4-[(7-{2-[(3R)-2,6-dioxopiperidin-3-yl]-1-oxo-2,3-dihydro-1H-isoindol-5-yl}-2-azaspiro[3.5]nonan-2-yl)methyl]piperidin-1-yl}phenyl)-4-oxo-3,4-dihydroquinazolin-6-yl]oxy}-4-fluorophenyl)-3-fluoropyrrolidine-1-sulfonamide], at B-RAF G466V, the DC50 fell in the range of 10 to 30 nM and the greatest degradation seen (Dmax) was 35 to 70%. On B-RAF V600E, the DC50 is 50 to 500 nM and the greatest degradation seen (Dmax) fell in the range of 35 to 70%.
With `N#Cc1c(NS(=O)(=O)N2CC[C@@H](F)C2)ccc(F)c1Oc1ccc2ncn(-c3ccc(N4CCC(CN5CCC(c6ccc7c(c6)CN([C@H]6CCC(=O)NC6=O)C7=O)CC5)C4)cc3)c(=O)c2c1` (stereo partly drawn) [Example 221, (3R)-N-(2-cyano-3-{[3-(4-{3-[(4-{2-[(3S)-2,6-dioxopiperidin-3-yl]-1-oxo-2,3-dihydro-1H-isoindol-5-yl}piperidin-1-yl)methyl]pyrrolidin-1-yl}phenyl)-4-oxo-3,4-dihydroquinazolin-6-yl]oxy}-4-fluorophenyl)-3-fluoropyrrolidine-1-sulfonamide], at B-RAF G466V, the DC50 was 1 to 10 nM and the Dmax lay in the range of 35 to 70%. On B-RAF V600E, this compound showed a DC50 of 50 to 500 nM and a Dmax of 35 to 70%.
Consider `CN(c1ccc2c(c1)CN([C@H]1CCC(=O)NC1=O)C2=O)C1CCC2(CC1)CCN(CC1CCN(c3ccc(-n4cnc5ccc(Oc6c(F)ccc(NS(=O)(=O)N7CC[C@@H](F)C7)c6C#N)cc5c4=O)cc3)CC1)CC2` [Example 222, (3R)-N-[2-cyano-3-({3-[4-(4-{[9-({2-[(3S)-2,6-dioxopiperidin-3-yl]-1-oxo-2,3-dihydro-1H-isoindol-5-yl}(methyl)amino)-3-azaspiro[5.5]undecan-3-yl]methyl}piperidin-1-yl)phenyl]-4-oxo-3,4-dihydroquinazolin-6-yl}oxy)-4-fluorophenyl]-3-fluoropyrrolidine-1-sulfonamide], for which the DC50 at B-RAF G466V fell in the range of 1 to 10 nM; on B-RAF V600E it was 50 to 500 nM. The Dmax at B-RAF G466V and at B-RAF V600E was 35 to 70% throughout.
On to `N#Cc1c(NS(=O)(=O)N2CC[C@@H](F)C2)ccc(F)c1Oc1ccc2ncn(-c3ccc(N4CCN(CC5(F)CCN(c6ccc7c(c6)CN([C@H]6CCC(=O)NC6=O)C7=O)CC5)CC4)cc3)c(=O)c2c1` [Example 223, (3R)-N-(2-cyano-3-{[3-(4-{4-[(1-{2-[(3S)-2,6-dioxopiperidin-3-yl]-1-oxo-2,3-dihydro-1H-isoindol-5-yl}-4-fluoropiperidin-4-yl)methyl]piperazin-1-yl}phenyl)-4-oxo-3,4-dihydroquinazolin-6-yl]oxy}-4-fluorophenyl)-3-fluoropyrrolidine-1-sulfonamide], for which the DC50 lay in the range of 1 to 10 nM on B-RAF G466V and 50 to 500 nM at B-RAF V600E. Also, the Dmax on B-RAF G466V and at B-RAF V600E was 35 to 70% throughout.

For orientation: DC50 means the midpoint of the concentration-degradation curve. Usually Dmax stands for the greatest extent of degradation seen.
